Experimental findings from article PMC12483217, “Exploring β-catenin and TCF4 interaction in complex environments by means of novel biosensing platform focal molography” (PLOS One, 2025) are described below.

Where a SMILES comes first, the peptide text is derived from it. Where no end group is shown, it is not given here. The star is where a group is joined. Biotin = O=C1N[C@H]2[C@H](CS[C@H]2CCCCC(=O)*)N1

In assay [1] the target is T1, Human β-catenin (Homo sapiens, UniProt P35222).
T1 construct: Variant: β-catenin (human) (Hs134–670)+TCF4(Hs1–53); purchased Proteros Biostructures
T1 sequence (P35222 134-670): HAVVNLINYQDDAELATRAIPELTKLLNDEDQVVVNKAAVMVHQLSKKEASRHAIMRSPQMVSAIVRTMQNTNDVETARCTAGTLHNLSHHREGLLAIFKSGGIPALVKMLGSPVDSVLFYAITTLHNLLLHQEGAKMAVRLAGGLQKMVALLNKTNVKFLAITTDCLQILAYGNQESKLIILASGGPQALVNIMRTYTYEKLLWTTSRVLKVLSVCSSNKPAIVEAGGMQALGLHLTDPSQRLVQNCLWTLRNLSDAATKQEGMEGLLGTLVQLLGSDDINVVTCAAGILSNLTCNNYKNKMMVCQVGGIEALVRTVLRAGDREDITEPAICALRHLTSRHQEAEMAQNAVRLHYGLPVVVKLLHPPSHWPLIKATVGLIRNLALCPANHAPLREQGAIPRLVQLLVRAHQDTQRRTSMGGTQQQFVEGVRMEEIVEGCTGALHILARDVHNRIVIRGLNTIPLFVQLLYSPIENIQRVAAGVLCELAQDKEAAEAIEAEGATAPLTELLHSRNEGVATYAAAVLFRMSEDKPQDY
In words: Focal molography (FM) direct binding of β-catenin to immobilised TCO-TCF4(7–30), buffer. As to conditions: range over 3 sensors x 3 runs. The procedure: (§1) FM experiments were conducted using a prototype FM reader from the “Fermi” generation developed by lino Biotech AG (Supplementary Figure 10 S1 File). The flow channel shape was hexagonal (Supplementary Figure 9 A&C S1 File) and the parallel region measured 12.0 x 1.9 x 0.1 mm. Only 18 molograms were recorded per measurement in order to save computing power for faster sampling rates of the intensities of the single molograms. Thus, the lower part of the double flow chamber was used. In all FM experiments, the same running buffer as in SPR was used. Samples in glass vials were injected from the autosampler (Alias, Spark Holland) and transferred with a syringe pump (Precision Syringe Drive/4, Hamilton) to the flow channel for 17 seconds at a flow rate of 400 µL/min (sample delivery step). […] During the association phase, the sample was passed through the flow chamber for one minute at a flow rate of 50 µL/min. To prevent the recording of the dilutive end of the sample, a fast flow rate of 500 µL/min was applied for two minutes to record the dissociation phase, followed by additional two minutes at a flow rate of 50 µL/min. For the regeneration, regeneration solution was injected from glass vials into the autosampler loop. The regeneration solution was passed through the flow chamber for three minutes at a flow rate of 100 µL/min.
(§2) A sensor chip of FM measured 9 x 18 mm. […]

For assay [2], the target named is T1, Human β-catenin. In words: Focal molography (FM) direct binding of β-catenin to immobilised TCO-TCF4(7–30), RKO cell lysate. The settings on record: cell lysate 1 Mio cells/mL, range over sensors and runs. The procedure: as §1, §2
Assay [3] has as its target T1, Human β-catenin. Description: SPR direct binding of β-catenin to immobilised biotinylated TCF4(7–30) in buffer. As to conditions: only one Hill slope. The procedure: (§3) For all SPR experiments, the running buffer consisting of 10 mM HEPES, 150 mM NaCl, 0.01% (v/v) P20, 1% (v/v) glycerol, 0.01% (v/v) BSA and 2% (v/v) DMSO at pH 7.4 was used. The TCF(7–30) peptide ([…]-K-biotin-amide) peptide was obtained from Biosyntan GmbH. Experiments were conducted at room temperature on a Biacore T200 (GE Healthcare, Uppsala, Sweden). The peptide was immobilized onto a Series S sensor chip SA (10352113, Cytiva, Uppsala, Sweden). Following the manufacturer’s protocol, the sensor was first prepared, and the peptide was injected at a concentration of 10 nM at a flow rate of 10 µL/min. Immobilization was achieved via biotin-streptavidin interaction to a level of 5, 25 and 50 RU in three different flow channels respectively. […] Binding analysis was monitored on all four flow channels with sample association time of one minute and dissociation time of four minutes at a flow rate of 50 µL/min. […]
(§4) The equilibrium dissociation constant (KD) and half maximal inhibitory concentration (IC50) were determined from binding signals collected in direct binding and competition experiments, respectively. […]
(§5) The SPR data was visualized and analyzed using GraphPad Prism 10.0.0 (Boston, Massachusetts USA, www.graphpad.com). For SPR analysis, signals recorded on the active surfaces were referenced with signals from the reference channel. […]

The target in assay [4] is T1, Human β-catenin. In words: SPR competition: free TCF4(7–51) with 250 nM β-catenin over immobilised TCF4(7–30), buffer. Format: binding. The settings on record: buffer pH 7.4, 95% confidence interval of fit. The procedure: as §3, §4, §5
The target of assay [5] is T1, Human β-catenin. In words: Focal molography (FM) competition: free TCF4(7–51) with 250 nM β-catenin over TCF4(7–30) sensor, buffer. Format: binding. As to conditions: range over 3 sensors x 3 runs. The procedure:
as §1, §2

Assay [6] addresses T1, Human β-catenin. Description: Focal molography (FM) competition: free TCF4(7–51) with 250 nM β-catenin over TCF4(7–30) sensor, RKO cell lysate. The format is binding. As to conditions: cell lysate 1 Mio cells/mL. The procedure: as §1
A sensor chip of FM measured 9 x 18 mm. The sensing area per mologram was 400 x 400 µm with 54 molograms (6 x 9 array) being present on one sensor chip. The center to center spacing of molograms in flow direction was 690 µm and 750 µm perpendicular to the flow. The sensors used in FM were manufactured and treated following published manufacturing protocols with the difference that the photoprotective PhSNPPOC group was replaced by a more hydrophilic PySNPPOC group. To activate the ridges using reactive immersion lithography, a phase mask was placed on the surface with a layer of 0.1% (v/v) hydroxyl amine in DMSO applied in between the mask and the sensor surface. The chip was exposed at 405 nm at a dose of 4000 mJ/cm^2 with a custom-built setup. Following exposure, the chip was incubated in 1 mM methyltetrazine-4-polyethyleneglycol-N-Hydroxysuccinimide (MeTz-PEG4-NHS) dissolved in HBST (10 mM HEPES, 150 mM NaCl, 0.05% (v/v) Tween20, pH 8.0) for 1 hour. After incubation, the chip was washed sequentially with 50:50 H2O/DMSO, DMSO, Isopropanol and H2O. Next, the entire chip surface, including the grooves, was activated by flood illumination with a dose of 18 J/cm^2. The chip was washed sequentially with 50:50 MQ H2O/DMSO, DMSO, Isopropanol and MQ H2O. As a final step, the chip was incubated with 10 mM tetrazine (Tz)-PEG5-NHS in HBST (10 mM HEPES, 150 mM NaCl, 0.05% (v/v) Tween20, pH 8.0) for 1 hour and washed with isopropanol and H2O. […]

A further assay addresses T2, beta-catenin (Homo sapiens, UniProt P35222).
T2 chain: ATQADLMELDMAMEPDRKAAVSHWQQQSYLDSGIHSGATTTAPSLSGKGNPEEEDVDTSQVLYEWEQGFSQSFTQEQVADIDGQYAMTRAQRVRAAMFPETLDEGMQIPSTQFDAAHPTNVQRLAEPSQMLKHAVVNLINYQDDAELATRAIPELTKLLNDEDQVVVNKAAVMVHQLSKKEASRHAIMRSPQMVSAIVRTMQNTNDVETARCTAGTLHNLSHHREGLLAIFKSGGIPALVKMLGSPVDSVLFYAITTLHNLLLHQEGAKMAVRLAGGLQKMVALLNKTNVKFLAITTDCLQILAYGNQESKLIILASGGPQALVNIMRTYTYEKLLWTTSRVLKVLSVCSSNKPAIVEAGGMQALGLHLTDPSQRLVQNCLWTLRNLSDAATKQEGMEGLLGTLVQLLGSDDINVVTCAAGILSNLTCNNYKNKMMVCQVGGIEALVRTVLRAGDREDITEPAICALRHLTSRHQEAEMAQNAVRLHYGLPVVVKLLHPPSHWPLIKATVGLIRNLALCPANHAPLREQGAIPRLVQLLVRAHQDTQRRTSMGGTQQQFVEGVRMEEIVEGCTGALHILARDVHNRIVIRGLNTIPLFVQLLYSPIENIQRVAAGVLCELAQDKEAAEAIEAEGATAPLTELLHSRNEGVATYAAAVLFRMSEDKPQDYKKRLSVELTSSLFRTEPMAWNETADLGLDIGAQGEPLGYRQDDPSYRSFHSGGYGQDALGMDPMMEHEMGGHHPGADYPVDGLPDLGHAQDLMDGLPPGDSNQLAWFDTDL
In words: SPR.

In general, Kd refers to a measure of binding affinity in units of concentration. The low end stands for tighter binding, the high end for weaker binding. `CC[C@H](C)[C@H](NC(=O)[C@H](CC(C)C)NC(=O)[C@H](CCC(=O)O)NC(=O)[C@H](CC(=O)O)NC(=O)[C@H](CC(N)=O)NC(=O)[C@H](C)NC(=O)CNC(=O)[C@H](CC(C)C)NC(=O)[C@H](CC(=O)O)NC(=O)[C@H](CC(=O)O)NC(=O)CNC(=O)CNC(=O)CN)C(=O)N[C@@H](CO)C(=O)N[C@@H](Cc1ccccc1)C(=O)N[C@@H](CCCCN)C(=O)N[C@@H](CC(=O)O)C(=O)N[C@@H](CCC(=O)O)C(=O)NCC(=O)N[C@@H](CCC(=O)O)C(=O)N[C@@H](CCC(N)=O)C(=O)N[C@@H](CCC(=O)O)C(=O)N[C@@H](CCC(=O)O)C(=O)N[C@@H](CCCCN)C(=O)O` [TCF4(7–30)] (H-GGGDDLGANDELISFKDEGEQEEK-OH): the dissociation constant (Kd) on Human β-catenin [1] fell in the range of 68 to 160 nM; on Human β-catenin [2], 100 to 140 nM.

With `CC[C@H](C)[C@H](NC(=O)[C@H](CC(C)C)NC(=O)[C@H](CCC(=O)O)NC(=O)[C@H](CC(=O)O)NC(=O)[C@H](CC(N)=O)NC(=O)[C@H](C)NC(=O)CNC(=O)[C@H](CC(C)C)NC(=O)[C@H](CC(=O)O)NC(=O)[C@H](CC(=O)O)NC(=O)CNC(=O)CNC(=O)CN)C(=O)N[C@@H](CO)C(=O)N[C@@H](Cc1ccccc1)C(=O)N[C@@H](CCCCN)C(=O)N[C@@H](CC(=O)O)C(=O)N[C@@H](CCC(=O)O)C(=O)NCC(=O)N[C@@H](CCC(=O)O)C(=O)N[C@@H](CCC(N)=O)C(=O)N[C@@H](CCC(=O)O)C(=O)N[C@@H](CCC(=O)O)C(=O)N[C@@H](CCCCN)C(=O)N[C@@H](CCCCNC(=O)CCCC[C@@H]1SC[C@@H]2NC(=O)N[C@@H]21)C(N)=O` [biotinylated TCF4(7–30)] (H-GGGDDLGANDELISFKDEGEQEEKK(Biotin)-NH2; N-terminus assumed), the “Hill slope of the dose-response” value at Human β-catenin [3] came out at 1.21.

A word on the IC50: it is the midpoint of a concentration-inhibition curve. Consider “GGGDDLGANDELISFKDEGEQEEKSSENSSAERDLADVKSSLVNE [TCF4(7–51)]”, for which the IC50 on Human β-catenin [4] is 95 to 115 nM; at Human β-catenin [5], 110 to 200 nM; at Human β-catenin [6] (Sensor 1, average of three runs, SD, read-out: IC50, Average ± SD) it was 170 nM; on Human β-catenin [6] (Sensor 2, average of three runs, SD, read-out: IC50, Average ± SD), 160 nM; at Human β-catenin [6] (Sensor 3, average of three runs, SD, read-out: IC50, Average ± SD), 140 nM; on Human β-catenin [6] (range over sensors and runs, read-out: IC50), 140 to 170 nM.

B1: TCF4 peptide TCF(7-51) 7-51 (peptide)
chain: GGGDDLGANDELISFKDEGEQEEKSSENSSAERDLADVKSSLVNE
Consider B1, for which, in the assay with beta-catenin, the Kd is around 108 nM.
